From US20240376165A1, “COMPOSITION COMPRISING VGLL1 PEPTIDE FOR TREATMENT OF CANCER” (ONECUREGEN CO., LTD., priority 2020, published 2024)
d = 2'-deoxy (DNA); r = 2'-OH (RNA)

Experiments:
[1] = tested on: MMP9; assay: MMP9 mRNA expression after TGF-β treatment, RT-PCR; type: cell-based, human; settings: NUGC3, 20 nM siRNA, TGF-β 18 hours, compared to control (siSC), FIG. 4
Procedure: In order to determine whether VGLL1 and TEAD4 were involved in MMP9 mRNA expression in NUGC3 human stomach cancer cells, MMP9 mRNA expression was examined by RT-PCR after TGF-β treatment.
Specifically, the stomach cancer cell line NUGC3 was cultured in a 6-well plate. The next day, 20 nM siSC, siVGLL1, siTEAD4, and siYAP were mixed with Lipofectamine 2000, and the cell line was treated with the mixture. The next day, after treatment with TGF-β for 18 hours, mRNA was extracted from the cells and complementary DNA was synthesized, followed by RT-PCR.

[2] = tested on: MMP9 promoter; assay: MMP9 promoter luciferase activity after TGF-β treatment; type: cell-based, human; settings: NUGC3, 20 nM siRNA, TGF-β 18 hours, compared to control (siSC), FIG. 3
Procedure: In order to determine whether VGLL1 and TEAD4 were involved in MMP9 promoter activity in NUGC3 human stomach cancer cell line, the MMP9 promoter luciferase activity was investigated after TGF-β treatment.
Specifically, the stomach cancer cell NUGC3 was cultured in a 48-well plate at a concentration of 2× 10^4 cells/well. The next day, the MMP9 gene-inserted pGL4.17-luciferase vector was transfected into cells using Lipofectamine 2000. After 24 hours, 20 nM siSC (SEQ ID NO: 23: 5′-CCUACGCCACCAAUUUCGUdTdT-3′) siVGLL1 (SEQ ID NO 24: 5′-[…]dTdT-3′), siTEAD4 (SEQ ID NO 25: 5′-GACACUACUCUUACCGCAUdTdT-3′), and siYAP (SEQ ID NO 26: 5′-CCACCA AGCUAGAUAAAGAAAdTdT-3′) were mixed with Lipofectamine 2000, and the cells were treated with the mixture. The next day, the cells were treated with TGF-β for 18 hours. Thereafter, the cells were disrupted using a passive lysis buffer. Then, after centrifuging cells, a supernatant was obtained. […] At this time, the degree of luminescence of the cells was checked using Victor X Light.

[3] = tested on: stomach cancer cell line NUGC3; assay: Matrigel cell invasion after siRNA; type: cell-based, human; settings: NUGC3, siRNA knockdown cells, Matrigel insert, 48 hours, FIG. 2C
Procedure: (§1) Next, in order to confirm the cell invasive ability of MMP9, a cell culture insert was fixed in a 24-well plate. Matrigel was diluted 20-fold, and 100 μl of diluent was added. The reaction was carried out at 37° C. for 1 hour or longer. 700 μl of medium containing 10% serum was added to a 24-well plate under the insert. MMP knockdown cells with the above siRNA were added to the insert according to 300 μl of serum-free medium to a concentration of 5×10^5. After 48 hours, the insert was removed and cells were fixed in 10% formalin solution. Cells remaining inside the insert were removed with a cotton swab and washed with water. Cells were stained with 0.4% Sulforhodamine B solution for 1 hour, washed with acetic acid, and dried. Then, a photograph was taken with an optical microscope, the membrane on the insert was cut, and Sulforhodamine B in stained cells was dissolved in 10 mM Tris solution, and absorbance was measured at 540 nm using an ELISA plate reader (FIG. 2C).

[4] = tested on: stomach cancer cell line NUGC3; assay: Cell proliferation after siRNA, Sulforhodamine B staining; type: cell-based, human; settings: NUGC3, 20 nM siRNA, 48 hours, FIG. 2B
Procedure: In addition, in order to confirm the cell proliferation ability of MMP9, the stomach cancer cell line NUGC3 was cultured in a 96-well plate. The next day, cells were treated with the mixture of Lipofectamine 2000 and 20 nM siSC or siMMP9. After 48 hours, cells were fixed using 1% formalin solution. Thereafter, the cells were stained with 0.4% Sulforhodamine B solution for 1 hour, washed with acetic acid, and dried. Then, the cells were dissolved in a 10 mM Tris solution, and absorbance was measured at 540 nm using an ELISA plate reader (FIG. 2B).

[5] = tested on: MMP9; assay: MMP9 knockdown by siRNA, RT-PCR; type: cell-based, human; settings: NUGC3, 20 nM siRNA, 48 hours, FIG. 2A
Procedure: Specifically, the stomach cancer cells line NUGC3 was cultured in a 6-well plate overnight, and then treated with the mixture of Lipofectamine 2000 and 20 nM siSC or siMMP9 (SEQ ID NO: 22) and. After 48 hours, mRNA was extracted from the cells and complementary DNA was synthesized, followed by RT-PCR using the MMP9 primer (FIG. 2A).

[6] = tested on: MMP9; assay: MMP9 expression by TGF-β treatment, RT-PCR; type: cell-based, human; settings: NUGC3, RT-PCR, after 6 hours of TGF-β treatment, FIG. 1
Procedure: In order to confirm the expression change of MMP9 according to TGF-β treatment in stomach cancer cell lines, the human stomach cancer cell line NUGC3 was treated with TGF-β at each time period, then mRNA was extracted from the cells, and complementary DNA was synthesized. Then RT-PCR was performed using Matrix metalloproteinase 9 (MMP9) primers (Table 4).

[7] = tested on: stomach cancer cell line NUGC3; assay: Cancer cell proliferation, real-time cell analysis (IncuCyte Zoom); type: cell-based, human; settings: FIG. 9
Procedure: Specifically, the stomach cancer cell line NUGC3 was cultured in a 96-well plate. The next day, the cells were treated with the peptide fragment. The cell proliferation was analyzed using a real-time cell analysis system (product name: IncuCyte Zoom).

[8] = tested on: stomach cancer cell line NUGC3; assay: Cancer cell proliferation with peptide variants, real-time cell analysis (Incucyte); type: cell-based, human; settings: NUGC3, 60 μM peptide, FIG. 11
Procedure: The stomach cancer cell line NUGC3 was cultured in a 96-well plate, and the next day, the cells were treated with 60 μM peptide. The cell proliferation was analyzed using a real-time cell analysis system (product name: Incucyte).
FIG. 11A is a graph of real-time cell proliferation, and FIG. 11B is a graph showing cell proliferation after 4 days based on 100% control peptide.

[9] = tested on: MMP9; assay: MMP9 protein expression induced by TGF-β, western blot, peptide treatment; type: cell-based, human; settings: NUGC3, TGF-β and peptide for 18 hours, FIG. 8
Procedure: To evaluate whether the peptide fragment that interferes the binding between VGLL1 and TEAD4 can inhibit MMP9 expression in human stomach cancer cells, peptides shown in Table 6 were prepared to examine their effects on MMP9 expression.
Experiments were performed using the synthetic peptide fragments. The stomach cancer NUGC3 cells were cultured in a 6-well plate. The next day, cells were cultured in serum-free cell culture for 24 hours. TGF-β and a control peptide fragment (SEQ ID NO: 12), a peptide fragment containing serine at position 84 of VGLL1 (SEQ ID NO: 27), and a mutant peptide fragment containing alanine at position 84 of VGLL1 (SEQ ID NO: 28) were treated into cells for 18 hours. Proteins were extracted from the cells using a Ripa buffer and were separated by electrophoresis. Thereafter, protein expression of genes was confirmed by using an antibody on the polyvinylidene fluoride membrane.

[10] = tested on: stomach cancer cell line NUGC3; assay: Cancer cell invasion with peptide fragment; type: cell-based, human; settings: NUGC3, insert, 48 hours, FIG. 10
Procedure: as §1
A method similar to Example 1-2 was performed for stomach cancer cell invasion experiment by the VGLL1 peptide fragment.
The stomach cancer cell line NUGC3 was placed in an insert together with the peptide fragment. After 48 hours of cell culture, the insert was fixed in a 10% formalin solution, and the downwardly migrated cells were confirmed by staining with 0.4% Sulforhodamine B solution.

[11] = tested on: ovarian cancer cells; assay: Proliferation of various cancer cells: ovarian cancer; type: cell-based; settings: 60 μM peptide; SK-OV3; FIG. 12
Procedure: (§2) In order to confirm the various cancer cell proliferation inhibitory effects of the variant of S84 VGLL1 peptide fragment, the VGLL1 S84 peptide sequence represented by SEQ ID NO: 27 was treated into various cancer cell lines.
(§3) Specifically, the cancer cells of Table 8 were cultured in a 96-well plate and treated with 60 μM peptide on the next day, and cell proliferation was analyzed using a real-time cell analysis system (product name: IncuCyte Zoom).

[12] = tested on: liver cancer cells; assay: Proliferation of various cancer cells: liver cancer; type: cell-based; settings: 60 μM peptide; HepG2, SNU354; FIG. 12
Procedure: as §2, §3

[13] = tested on: colorectal cancer cells; assay: Proliferation of various cancer cells: colorectal cancer; type: cell-based; settings: 60 μM peptide; SW620, HCT116, WiDr; FIG. 12
Procedure: as §2, §3

[14] = tested on: breast cancer cells; assay: Proliferation of various cancer cells: breast cancer; type: cell-based; settings: 60 μM peptide; MCF7, SKBR3; FIG. 12
Procedure: as §2, §3

[15] = tested on: stomach cancer cells; assay: Proliferation of various cancer cells: stomach cancer; type: cell-based; settings: 60 μM peptide; NUGC3, AG5, NCI-N87, SNU484, MKN1; FIG. 12
Procedure: as §2, §3

[16] = tested on: lung cancer cells; assay: Proliferation of various cancer cells: lung cancer; type: cell-based; settings: 60 μM peptide; A549, H1650, H1299; FIG. 12
Procedure: as §2, §3

[17] = tested on: prostate cancer cells; assay: Proliferation of various cancer cells: prostate cancer; type: cell-based; settings: 60 μM peptide; FIG. 12
Procedure: as §2, §3

[18] = tested on: cervical cancer cells; assay: Proliferation of various cancer cells: cervical cancer; type: cell-based; settings: 60 μM peptide; Hela; FIG. 12
Procedure: as §2, §3

[19] = target: T1, GFP-TEAD4, expressed from the GFP-TEAD4 vector (UniProt Q15561 1-434); assay: co-immunoprecipitation with HA antibody agarose, western blot with GFP antibody
T1 construct: Detected with GFP antibody in the HA immunoprecipitate; also called transcription factor TEAD4; not shown: GFP tag
T1 sequence (Q15561 whole entry): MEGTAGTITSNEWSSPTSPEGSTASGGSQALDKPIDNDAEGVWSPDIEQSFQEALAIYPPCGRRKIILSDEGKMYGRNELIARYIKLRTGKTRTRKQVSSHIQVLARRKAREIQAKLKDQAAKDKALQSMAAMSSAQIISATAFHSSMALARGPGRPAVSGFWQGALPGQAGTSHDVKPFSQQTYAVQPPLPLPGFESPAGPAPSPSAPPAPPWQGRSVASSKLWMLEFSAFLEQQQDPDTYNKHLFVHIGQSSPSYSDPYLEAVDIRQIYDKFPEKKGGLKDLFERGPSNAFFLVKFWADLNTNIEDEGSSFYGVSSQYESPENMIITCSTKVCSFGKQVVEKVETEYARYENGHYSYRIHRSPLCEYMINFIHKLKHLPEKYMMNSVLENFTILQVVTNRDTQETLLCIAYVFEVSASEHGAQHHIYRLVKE
Procedure: Specifically, the GFP-TEAD4 vector and pcDNA3-HA (EV), pcDNA3-HA-VGLL1 (WT), pcDNA3-HA-VGLL1-S50A (S50A mutation), pcDNA3-HA-VGLL1-S84A (S84A mutation), and pcDNA3-HA-VGLL1-S124A (S124A mutation) were mixed with Turbofect. The mixture was transformed to the cell lines cultured for 24 hours. After 48 hours, the protein was extracted from the cells using a Ripa buffer. The extracted protein was subjected to immunoprecipitation using agarose bound with HA antibody and separated by electrophoresis. Thereafter, western blot analysis was performed using an antibody on the polyvinylidene fluoride membrane.

5′-AGCCUAUAAAGACGGAAUGGAAUdTdT-3′ (sense AGCCUAUAAAGACGGAAUGGAAUTT; sugars from the 5' end r23 d2, backbone not given here) [siVGLL1, siRNA against VGLL1]
MMP9 mRNA expression increased by TGF-β [1]: decreased
MMP9 promoter activity increased by TGF-β [2]: decreased

5′-CCACAACAUCACCUAUUGGAUdTdT-3′ [siMMP9]
cell invasiveness [3]: greatly reduced cell invasiveness
cell viability [4]: greatly reduced cell viability
expression of MMP9 [5]: reduced expression of MMP9

5′-GACACUACUCUUACCGCAUdTdT-3′ [siTEAD4]
MMP9 mRNA expression increased by TGF-β [1]: decreased
MMP9 promoter activity increased by TGF-β [2]: decreased

Transforming growth factor-β [TGF-β]
expression of MMP9 [6]: increased

YGRKKRRQRRR (HIV-1 Tat) [Control peptide]
inhibition of cancer cell proliferation [7]: did not have any effect

YGRKKRRQRRR-PNQWRYSSAWTKPQP (YGRKKRRQRRRPNQWRYSSAWTKPQP; HIV TAT sequence linked; Tat-VGLL1(P85A)) [VGLL1 P85A]
inhibition of cancer cell proliferation [8]: excellent effect in inhibiting cancer cell proliferation

YGRKKRRQRRR-PNQWRYSSPWAKPQP (YGRKKRRQRRRPNQWRYSSPWAKPQP; HIV TAT sequence linked; Tat-VGLL1(T87A)) [VGLL1 T87A]
inhibition of cancer cell proliferation [8]: excellent effect in inhibiting cancer cell proliferation

YGRKKRRQRRR-YSSPWTK (YGRKKRRQRRRYSSPWTK; HIV TAT sequence linked; Tat-VGLL1(S84-S)) [VGLL1 S84-S]
inhibition of cancer cell proliferation [8]: excellent effect in inhibiting cancer cell proliferation

YGRKKRRQRRRPNQWRYSAPWTKPQP (HIV TAT domain linked; Tat-VGLL1(S84A)) [VGLL1 (S84A), reference compound]
inhibition of cancer cell proliferation [7]: did not have any effect
increased MMP9 expression by TGF-β [9]: not affected
inhibition of cancer cell invasion [10]: did not exhibit such an effect

YGRKKRRQRRRPNQWRYSSPWTKPQP [VGLL1 (S84)]
inhibition of proliferation of ovarian cancer cells [11]: excellent effect in inhibiting the proliferation
inhibition of proliferation of liver cancer cells [12]: excellent effect in inhibiting the proliferation
inhibition of proliferation of colorectal cancer cells [13]: excellent effect in inhibiting the proliferation
inhibition of proliferation of breast cancer cells [14]: excellent effect in inhibiting the proliferation
inhibition of proliferation of stomach cancer cells [15]: excellent effect in inhibiting the proliferation
inhibition of cancer cell proliferation [8]: excellent effect in inhibiting cancer cell proliferation
inhibition of proliferation of lung cancer cells [16]: excellent effect in inhibiting the proliferation
inhibition of proliferation of prostate cancer cells [17]: excellent effect in inhibiting the proliferation
inhibition of cancer cell proliferation [7]: exhibited an effect of inhibiting cancer cell proliferation
inhibition of proliferation of cervical cancer cells [18]: excellent effect in inhibiting the proliferation
increased MMP9 expression by TGF-β [9]: reduced
inhibition of cancer cell invasion [10]: exhibited an effect of inhibiting cancer cell invasion

B1: HA-VGLL1-S84A, expressed from pcDNA3-HA-VGLL1-S84A (other)
chain: MEEMKKTAIRLPKGKQKPIKTEWNSRCVLFTYFQGDISSVVDEHFSRALSNIKSPQELTPSSQSEGVMLKNDDSMSPNQWRYSAPWTKPQPEVPVTNRAANCNLHVPGPMAVNQFSPSLARRASVRPGELWHFSSLAGTSSLEPGYSHPFPARHLVPEPQPDGKREPLLSLLQQDRCLARPQESAARENGNPGQIAGSTGLLFNLPPGSVHYKKLYVSRGSASTSLPNETLSELETPGKYSLTPPNHWGHPHRYLQHL
notes: Serine 84 of VGLL1 replaced with alanine by site-directed mutagenesis in the pcDNA3-HA-VGLL1 vector; also called S84A mutation; not shown: HA tag from the pcDNA3-HA vector
binding result [19]: no binding
